Data: patent US20180318355A1, “METHODS AND COMPOSITIONS FOR IMPROVED TISSUE REGENERATION BY SUPPRESION OF INTERFERIN-GAMMA AND TUMOR NECROSIS FACTOR-ALPHA” (Alfred E. Mann Institute for Biomedical Eng. at the …, priority 2011, published 2018)
Entries after “also recorded” stand apart in the source; their conditions may differ.

Tests used:
BMMSCs [1] = experiment: Cell apoptosis and cell survival assay in vitro (toluidine blue, Annexin V); conditions: TNF-α 0, 5, 50, 100 ng/ml, flow cytometric analysis
Method: Cell apoptosis and cell survival assay. 0.5×10^6 BMMSCs were seeded to 6-well culture plate and co-cultured with different doses of recombined IL-4, IL-6, IL-17A, TGF-β1, TNF-α and IFN-γ (0, 10, 20, 50, 100, 200 ng/ml) for 3 days. To measure the cell viability, the total cells were analyzed by using a cell counting kit-8 (Dojindo Molecular Technoloies, Gaithersburg, Md.) according to the manufacture's instruction. And the culture plates with cells were stained with 2% toluidine blue O and 2% paraformaldehyde (Sigma-Aldrich Corporate, St. Louis, Mo.).
For cell apoptosis analysis, the BMMSCs were stained by Annexin V-PE apoptosis detection kit I (BD Bioscience) following manufacture's protocol, and analyzed by FACS^Calibur (BD Bioscience).
IFN-γ and TNF-α synergism for apoptosis. For cell apoptosis staining, the 1×10^4 BMMSCs were seeded onto two chambers slide, IFN-γ (50 ng/ml) and TNF-α (20 ng/ml) were used to treat the BMMSCs for 24 hrs either separately or combined, Annexin V-PE apoptosis detection kit I (BD Bioscience) was used to stain the BMMSCs following manufacture's protocol, and analyzed on microscopy and FACS^Calibur (BD Bioscience). Cell viability was analyzed by using cell counting kit, and culture plates were stained with 2% toluidine blue O and 2% paraformaldehyde.
IFN-γ and TNF-α synergism for apoptosis. 0.5×10^6 BMMSCs were seeded to 6-well culture plate and co-cultured with different doses of TNF-α (0, 5, 50, 100 ng/ml) with or without IFN-γ (50 ng/ml) for I day. Then, the BMMSCs were stained by Annexin V-PE apoptosis detection kit I (BD Bioscience) following manufacture's protocol, and analyzed by FACS^Calibur (BD Bioscience).

GFP^+ BMMSCs = experiment: Cell survival assay, subcutaneous GFP+ BMMSC implantation; format: in vivo, mice
Method: Cell survival assay. 4×10^6 BMMSCs isolated from C57BL/6-Tg (CAG-EGFP)1Osb/J mice were combined with different concentrations of IFN-γ (0, 20, 50, 100, 200 ng/ml) and TNF-α (0, 20, 50, 100, 200 ng/ml) and subcutaneously transplanted into immunocompromised mice, hydrogel was used as a slowly released carrier. Thirty days after translation, the implants were harvested and digested in a solution of 3 mg/mL collagenase type I (Worthington Biochem) and 4 mg/mL dispase (Roche) for 1 h at 37° C. Single-cell suspensions were obtained by passing the cells through a 70 μm strainer (BD Bioscience). 1.0-1.5×10^6 BMMSCs were seeded into 100 mm culture dishes (Corning) and incubated for 48 hours under 37° C. at 5% CO2 condition. To eliminate the non-adherent cells, the cultures were washed with PBS twice. The attached cells were cultured for 10 days with alpha minimum essential medium (α-MEM, Invitrogen) supplemented with 20% FBS, 2 mM L-glutamine (Invitrogen), 55 μM 2-mercaptoethanol (Invitrogen), 100 U/ml penicillin, and 100 μg/ml streptomycin (Invitrogen). The numbers of GFP positive cells were counted under fluorescent microscopy.

[2] = tested on: BMMSC-mediated bone formation; experiment: BMMSC-mediated bone formation, subcutaneous BMMSC/HA/TCP implantation; format: in vivo; conditions: immunocompromised mice
Method: BMMSC-mediated bone formation. Approximately 4.0×10^6 BMMSCs were mixed with hydroxyapatite/tricalcium phosphate (HA/TCP) ceramic particles (40 mg, Zimmer Inc., Warsaw, Ind.) as a carrier and subcutaneously implanted into the dorsal surface of 8-10 weeks old immunocompromised mice or C57BL/6J mice. At eight weeks post-implantation, the implants were harvested, fixed in 4% paraformaldehyde and then decalcified with 5% EDTA (pH 7.4), followed by paraffin embedding. The 6 μm paraffin sections were stained with hematoxylin and eosin (H&E) and analyzed by an NIH Image J. Five fields were selected and newly formed mineralized tissue area in each field was calculated and shown as a percentage to total tissue area.
Cytokines in BMMSC-mediated bone formation. Approximately 4.0×10^6 of littermate-derived or autologous BMMSCs were mixed with HA/TCP ceramic powders (40 mg, Zimmer Inc.), and hydrogel (Glycosan Biosysterms, Salt Lake City, Utah) with 200 ng IFN-γ, TNF-α, IL-4, IL-6 or IL-17A were covered on the surface of the implants as a slow released system. At eight weeks post-implantation, the implants were harvested and newly formed mineralized tissue areas were analyzed. […]
BMMSC-mediated bone formation. Approximately 4.0×10^6 of littermate-derived or autologous BMMSCs were mixed with hydroxyapatite/tricalcium phosphate (HA/TCP) ceramic particles (40 mg, Zimmer Inc., Warsaw, Ind.) as a carrier and subcutaneously implanted into the dorsal surface of 8-10 weeks old immunocompromised mice or C57BL6 mice. When aspirin was used, BMMSCs were treated with 50 μg/ml aspirin for 2 days and mixed with HA/TCP particles to be subcutaneously implanted into immunocompromised mice. When IFN-γ and TNF-α were used in the subcutaneous implants, 200 ng IFN-γ, TNF-α or/and 100 μg aspirin mixed with 250 μl hydrogel as a slow released system and subcutaneously co-implanted to the dorsal surface of 8-10 weeks old immunocompromised mice.
At eight weeks post-implantation, the implants were harvested, fixed in 4% paraformaldehyde and then decalcified with 5% EDTA (pH 7.4), followed by paraffin embedding. The 6 μm paraffin sections were stained with hematoxylin and eosin (H&E) and analyzed by an NIH Image J. Five fields were selected and newly formed mineralized tissue area in each field was calculated and shown as a percentage to total tissue area.

[3] = tested on: Fas, caspase 8, caspase 3; experiment: Western blot of Fas, cleaved caspase 8 and cleaved caspase 3 in BMMSCs; format: cell-based, mouse
Method: Western blot analysis. Total protein was extracted using M-PER mammalian protein extraction reagent (Thermo, Rockford, Ill.). Nuclear protein was obtained using NE-PER nuclear and cytoplasmic extraction reagent (Thermo). Protein was applied and separated on 4-12% NuPAGE gel (Invitrogen) and transferred to Immobilon™-P membranes (Millipore). The membranes were blocked with 5% non-fat dry milk and 0.1% tween-20 for 1 hour, followed by incubation with the primary antibodies (1:20¬1000 dilution) at 4° C. overnight. Horseradish peroxidase-conjugated IgG (Santa Cruz Biosciences; 1:10,000) was used to treat the membranes for 1 hour, and enhanced with a SuperSignal® West Pico Chemiluminescent Substrate (Thermo). The bands were detected on BIOMAX MR films (Kodak, Rochester, N.Y.). Each membrane was also stripped using a stripping buffer (Thermo) and reprobed with anti-β-actin antibody to quantify the amount of loaded protein.
(§1) SiRNAs for Fas, TNFR2, IKK, FLIP and XIAP were used to treat the BMMSCs according to the manufacture's instruction, and IFN-γ and TNF-α were added for 24 hrs. Inhibitors for internalization (Latrunculin A, 0.2 μM), pan caspase (Z-VAD (OMe)-FMK, 50 μM), caspase 8 ([…], 20 μM) and caspase 3 (Z-DEVD-FMK, 20 µM) were used to treat the BMMSCs at 4 hrs before IFN-γ and TNF-α were added. Cell apoptosis were analysis by immunofluorescence staining and FACS^Calibur (Annexin V-PE apoptosis detection kit I) and Western blot analysis for caspase 8, cleaved caspase 8, caspase 3 and cleaved caspase 3.

IL-10 = experiment: ELISA of IL-10 level in BMMSC implants; format: in vivo, mice; conditions: aspirin treatment vs untreated control, 2 to 14 days post implantation
From the text: (§2) Kits. Pan T cell isolation kit II and CD4^+CD25^+ regulatory T Cell isolation kit were purchased from Miltenyi Biotec (Bergisch Gladbach, Germany). Mouse IFN-γ, TNF-α, IL-6, IL-17A, IL-4 and IL-10 ELISA Ready-SET-GO kits were purchased from eBioscience (San Diego, Calif.). siRNA kits for Fas, Smad 6, TNFR2, IKK, FLIP and XIAP were purchased from Santa Cruz Biosciences (Santa Cruz, Calif.).

TNF-α positive cells = experiment: Immunohistochemical staining of TNF-α positive cells in BMMSC implants; format: in vivo; conditions: aspirin treated vs untreated control, C57BL6 mice
Method: (§3) Immunofluorescent and immunochemical microscopy. The transplants were harvested, fixed in 4% paraformaldehyde and then decalcified with 5% ethylenediaminetetraacetic acid (EDTA, pH 7.4), followed by paraffin or optimal cutting temperature compound (OCT, Sakura Fineteck Inc., Torrance, Calif.) embedding. The paraffin or frozen sections were blocked with normal serum matched to secondary antibodies, incubated with the specific or isotype-matched mouse antibodies (1:200) overnight at 4° C. For immunofluorescent staining, the samples were treated with Rhodamin/FITC-conjugated secondary antibodies (1:200, Jackson ImmunoResearch, West Grove, Pa.; Southern Biotechnology, Birmingham, Ala.), and were mounted by means of a vectashield mounting medium containing 4′,6-diamidino-2-phenylindole (DAPI) (Vector Laboratories, Burlingame, Calif.). For immunochemical staining, the samples were stained by using Zymed SuperPicture™ Kit (Invitrogen Corporation) according to the manufacturer's instruction.
(§4) Immunochemical microscopy. The transplants were harvested, fixed in 4% paraformaldehyde and then decalcified with 5% ethylenediaminetetraacetic acid (EDTA, pH 7.4), followed by paraffin or optimal cutting temperature compound (OCT, Sakura Fineteck Inc., Torrance, Calif.) embedding. […]

calvarial bone defects = experiment: Calvarial bone defect repair by BMMSC/gelfoam implantation; format: in vivo, C57BL/6J mice
Method: Calvarial bone defect model in C57BL/6J mice. The skin of C57BL/6J mice was cut and periosteum was elevated. The surface of mouse cavarial bone was exposed, and oversize bone defects of 7 mm×8 mm were established. The bone defect was larger than usually critical size with diameter of 4 mm.
Implantation of BMMSCs to calvarial bone defects in C57BL/6J mice. 4×10^6 BMMSCs were seeded to a size of 7 mm×8 mm gelfoam (Pharmaca, Boulder, Colo.) and cultured for 3 days in vitro. The gelfoam with BMMSCs was placed to the calvarial bone defects and covered completely by skins. For aspirin treated group, the BMMSCs seeded on gelfoam were pretreated with 50 μg/ml aspirin for 3 days, then placed to the calvarial bone defect. Another gelfoam with 100 μg aspirin as a releasing system was covered on the surface of the gelfoam with BMMSCs (FIG. 14).

IFN-γ = experiment: ELISA of IFN-γ level in BMMSC implants; format: in vivo, mice; conditions: aspirin treatment vs untreated control, 2 to 14 days post implantation
From the text: as §2

[4] = tested on: osteoclastogenesis, osteogenesis; conditions: literature (13-15); cited from earlier work
TNF-α = experiment: ELISA of TNF-α level in BMMSC implants; format: in vivo, mice; conditions: aspirin treatment vs untreated control, 2 to 14 days post implantation
From the text: as §2

IFN-γ positive cells = experiment: Immunohistochemical staining of IFN-γ positive cells in BMMSC implants; format: in vivo; conditions: aspirin treated vs untreated control, C57BL6 mice
Method: as §3, §4

Fas = Fas internalization (immunocytochemical staining); format: cell-based, mouse; conditions: caspase inhibitor in IFN-γ/TNF-α-treated BMMSCs vs control group
Method: as §1
Fas internalization. P1 BMMSCs were seeded to 2-well chamber slide. IFN-γ (50 ng/ml) was added to pre-treat BMMSCs for 24 hours, and then TNF-α (20 ng/ml) was added. At the 0.5, 1, 2, 4 hours after TNF-α was added, the cells were washed by PBS twice, and fixed with 4% PFA for 15 min. After treated by Triton-X 15 min, the cells were blocked with normal serum matched to secondary antibodies, incubated with 1 μg/ml anti-Fas (Santa Cruz) antibody at room temperature for 2 hours, treated with Rhodamin-conjugated secondary antibodies (1:200, Jackson ImmunoResearch). Then the cells were incubated with ([…] (1:40; Invitrogen) at room temperature for 20 min, and were mounted by vectashield mounting medium DAPI (Vector Laboratories).

BMMSCs [5] = experiment: siRNA and inhibitors: IFN-γ/TNF-α-induced BMMSC death; format: cell-based, mouse; conditions: siRNA or inhibitor treatment before IFN-γ/TNF-α, toluidine blue staining
Method: as §1

[6] = wild type BMMSCs, IFN-γ 50 ng/ml, TNF-α 20 ng/ml, alone or co-stimulated
[7] = siRNA or inhibitor treatment before IFN-γ/TNF-α

TNF-α
BMMSC apoptosis (BMMSCs [1]): dose-dependent BMMSC apoptosis | numbers of surviving BMMSCs in implants (GFP^+ BMMSCs; TNF-α 50 ng/ml, immunocompromised mice, 30 days post implantation, vs untreated control): marked reduction in the numbers of survived BMMSCs; also recorded: significant reduction in the numbers of surviving cells | new bone formation in BMMSC implants ([2]; 200 ng cytokine in hydrogel co-implanted with BMMSCs/HA/TCP, 8 weeks post implantation): very limited bone formation; also recorded: inhibited subcutaneous bone formation; also recorded: reduced BMMSC-mediated bone formation; also recorded: significantly reduced bone formation | Fas expression [3, 6]: slightly increase | activation of caspase 3 and caspase 8 [3, 6]: slightly increase

CC(=O)Oc1ccccc1C(=O)O [aspirin]
level of IL-10 in BMMSC implants (IL-10): not and without affecting | TNF-α positive cells in BMMSC implants (TNF-α positive cells): significantly decreased; also recorded: suppressive effect | numbers of surviving GFP positive BMMSCs in implants (GFP^+ BMMSCs; 50 μg/ml aspirin pre-treated 2 days, 100 μg aspirin co-implanted, 4 to 30 days post implantation): significantly increased numbers of survival cells; also recorded: significant increase in survival of BMMSCs | BMMSC-mediated bone formation suppressed by IFN-γ or TNF-α ([2]; 200 ng IFN-γ or TNF-α co-implanted, 50 μg/ml aspirin pre-treatment and 100 μg aspirin co-implanted): significant rescuing of BMMSC-mediated bone formation; also recorded: restored bone formation | amount of new bone formation ([2]; BMMSCs treated with 50 μg/ml aspirin for 2 days, HA/TCP, vs untreated control): increased | repair of 7×8 mm calvarial bone defects (calvarial bone defects; BMMSCs cultured with 50 μg/ml aspirin, gelfoam containing 100 μg aspirin, 12 weeks, microQCT, vs BMMSC/gelfoam): completely repaired; also recorded: significantly improves BMMSC-based calvarial defect repairing; also recorded: marked improvement in repairing calvarial defects | structure of regenerated tissues versus normal calvarial tissues (calvarial bone defects; BMMSCs with gelfoam containing aspirin (100 μg)): analogous to normal calvarial tissues | level of IFN-γ in BMMSC implants (IFN-γ): reduces; also recorded: suppressed | osteoclastogenesis [4]: inhibits osteoclastogenesis | osteogenesis [4]: improves osteogenesis | level of TNF-α in BMMSC implants (TNF-α): reduces; also recorded: suppressed | IFN-γ positive cells in BMMSC implants (IFN-γ positive cells): significantly decreased; also recorded: suppressive effect

COC(=O)CC[C@H](NC(=O)[C@H](CC(=O)OC)NC(=O)OCc1ccccc1)C(=O)N[C@H](C(=O)N[C@@H](CC(=O)OC)C(=O)CF)C(C)C [Caspase 3 inhibitor, Z-DEVD-FMK]
cleaved caspase 3 in IFN-γ/TNF-α-treated BMMSCs [3, 7]: partially inhibition | cleaved caspase 8 in IFN-γ/TNF-α-treated BMMSCs [3, 7]: no inhibitive effect | number of BMMSCs with Fas internalization (Fas): reduced number of Fas internalization | IFN-γ/TNF-α-induced BMMSC death (BMMSCs [5]): rescuing IFN-γ/TNF-α-induced BMMSC death
